This is an account of results in US12653894B2, “Degradation of FAK or FAK and ALK by conjugation of FAK and ALK inhibitors with E3 ligase ligands and methods of use” (DANA-FARBER CANCER INSTITUTE, INC., priority 2018, dated 2026).

Molecules are shown by their SMILES. pIC50: −log10 of the molar value. “Also recorded” adds a separate entry of the source.

Test [1] deals with T1, FAK (Homo sapiens, UniProt Q05397). Briefly: FAK degradation by immunoblot in H3122 cells. The format is cell-based. Further details: endogenous in cells; host or cells: H3122. The settings on record: 10 nM to 1000 nM, 16 hours (compound 10) or 24 hours (compounds 1, 9). On the technique in general: A western blot detects proteins with antibodies after separation by electrophoresis.
T1 sequence (Q05397 whole entry): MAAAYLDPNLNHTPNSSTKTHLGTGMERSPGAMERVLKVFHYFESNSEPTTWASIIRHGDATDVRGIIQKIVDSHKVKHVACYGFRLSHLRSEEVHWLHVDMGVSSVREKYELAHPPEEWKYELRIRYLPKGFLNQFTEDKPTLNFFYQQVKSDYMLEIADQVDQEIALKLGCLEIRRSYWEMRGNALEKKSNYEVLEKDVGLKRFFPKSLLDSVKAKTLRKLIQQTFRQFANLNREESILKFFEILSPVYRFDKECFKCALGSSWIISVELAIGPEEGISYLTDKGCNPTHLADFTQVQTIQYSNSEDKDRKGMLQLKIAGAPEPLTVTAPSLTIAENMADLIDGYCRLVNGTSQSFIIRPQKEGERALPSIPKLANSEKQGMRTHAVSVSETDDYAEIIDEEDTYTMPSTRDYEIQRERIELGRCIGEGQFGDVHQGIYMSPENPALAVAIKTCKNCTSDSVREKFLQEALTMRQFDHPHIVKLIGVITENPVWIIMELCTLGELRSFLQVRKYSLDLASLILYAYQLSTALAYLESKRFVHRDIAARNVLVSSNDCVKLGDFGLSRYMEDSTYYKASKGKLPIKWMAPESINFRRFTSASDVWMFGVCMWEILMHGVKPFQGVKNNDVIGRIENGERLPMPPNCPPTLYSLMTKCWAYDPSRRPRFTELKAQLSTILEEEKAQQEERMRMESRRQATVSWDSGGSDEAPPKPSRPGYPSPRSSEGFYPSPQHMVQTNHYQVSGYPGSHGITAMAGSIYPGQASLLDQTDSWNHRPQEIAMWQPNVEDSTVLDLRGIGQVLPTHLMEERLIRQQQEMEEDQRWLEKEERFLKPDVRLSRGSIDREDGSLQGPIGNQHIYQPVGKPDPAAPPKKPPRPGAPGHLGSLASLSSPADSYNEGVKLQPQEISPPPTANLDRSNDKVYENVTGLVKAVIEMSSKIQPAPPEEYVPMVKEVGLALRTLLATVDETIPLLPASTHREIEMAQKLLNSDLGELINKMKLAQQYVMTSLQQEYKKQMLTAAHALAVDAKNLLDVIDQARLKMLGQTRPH

Test [2] deals with T2, ALK (Homo sapiens, UniProt Q9UM73). The experiment in a line: ALK degradation by immunoblot in H3122 cells. The test is classed as cell-based. Further details: endogenous in cells; host or cells: H3122; the other entry of the earlier key: EML4 (Q9HC35, Echinoderm microtubule-associated protein-like 4). The settings on record: 10 nM to 1000 nM, 16 hours (compound 10) or 24 hours (compounds 1, 9).
Target sequence in this assay (Q9UM73 with tags, fused parts or gaps): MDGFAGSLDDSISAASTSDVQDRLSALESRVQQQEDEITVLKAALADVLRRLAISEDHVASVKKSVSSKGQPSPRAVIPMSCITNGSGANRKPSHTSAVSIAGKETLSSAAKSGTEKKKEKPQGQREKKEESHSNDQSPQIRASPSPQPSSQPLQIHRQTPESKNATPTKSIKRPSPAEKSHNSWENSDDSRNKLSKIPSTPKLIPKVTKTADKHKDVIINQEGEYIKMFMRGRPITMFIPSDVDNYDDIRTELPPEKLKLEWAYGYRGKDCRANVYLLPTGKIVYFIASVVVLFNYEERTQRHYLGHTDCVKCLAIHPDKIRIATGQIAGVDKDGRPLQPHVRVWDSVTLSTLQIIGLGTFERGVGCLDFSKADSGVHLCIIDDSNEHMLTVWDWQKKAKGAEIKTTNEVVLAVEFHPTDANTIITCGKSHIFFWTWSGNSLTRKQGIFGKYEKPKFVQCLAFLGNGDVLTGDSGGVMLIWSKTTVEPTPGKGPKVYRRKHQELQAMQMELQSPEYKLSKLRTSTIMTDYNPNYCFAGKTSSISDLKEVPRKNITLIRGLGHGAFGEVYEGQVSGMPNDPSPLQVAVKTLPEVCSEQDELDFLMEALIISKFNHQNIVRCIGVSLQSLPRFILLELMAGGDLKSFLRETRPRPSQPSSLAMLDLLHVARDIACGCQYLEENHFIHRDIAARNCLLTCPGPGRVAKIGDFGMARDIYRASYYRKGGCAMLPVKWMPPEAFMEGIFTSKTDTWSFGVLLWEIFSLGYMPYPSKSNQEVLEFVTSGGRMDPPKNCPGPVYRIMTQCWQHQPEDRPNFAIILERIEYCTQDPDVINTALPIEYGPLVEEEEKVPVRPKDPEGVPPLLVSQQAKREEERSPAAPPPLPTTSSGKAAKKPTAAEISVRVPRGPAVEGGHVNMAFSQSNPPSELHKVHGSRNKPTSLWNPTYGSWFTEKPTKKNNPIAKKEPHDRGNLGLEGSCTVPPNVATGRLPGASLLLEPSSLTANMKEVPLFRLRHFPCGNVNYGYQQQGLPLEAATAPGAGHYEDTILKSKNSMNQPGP
Target sequence in this assay (Q96SW2 whole entry partner): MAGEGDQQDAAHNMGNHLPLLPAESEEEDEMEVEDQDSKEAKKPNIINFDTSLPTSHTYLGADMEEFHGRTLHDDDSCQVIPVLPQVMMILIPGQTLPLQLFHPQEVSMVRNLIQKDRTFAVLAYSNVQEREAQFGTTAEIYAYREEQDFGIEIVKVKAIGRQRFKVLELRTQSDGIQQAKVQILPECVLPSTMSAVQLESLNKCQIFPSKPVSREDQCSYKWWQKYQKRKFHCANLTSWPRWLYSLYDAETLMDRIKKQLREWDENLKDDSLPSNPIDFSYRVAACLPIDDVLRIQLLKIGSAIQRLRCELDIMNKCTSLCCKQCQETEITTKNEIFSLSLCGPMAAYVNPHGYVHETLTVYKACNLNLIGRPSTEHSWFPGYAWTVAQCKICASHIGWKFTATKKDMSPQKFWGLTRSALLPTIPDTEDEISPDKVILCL

For test [3], the target named is T1, FAK. Briefly: FAK degradation by immunoblot in PA-TU-8988T cells. The settings on record: PA-TU-8988T cells, 4 hours; for Degradation of FAK protein (in words): 0.1 nM to 1000 nM, immunoblot; for inhibition at 0.01 µM / inhibition at 0.1 µM: PaTu 8988t, total FAK protein, vs DMSO; for inhibition at 0.01 µM: 10 nM, read-out: Degradation at 10 nM; for inhibition at 0.1 µM: 100 nM, read-out: Degradation at 100 nM. The test is classed as cell-based. Further details: endogenous in cells; host or cells: PA-TU-8988T. As for the experimental part:
(§1) Immunoblotting for FAK was performed to evaluate changes in protein levels upon FAK degrader treatment. All samples were run with equal total protein content and immunoblotting was performed using antibodies that detect total FAK protein as well as GAPDH or α-Tubulin as a loading control. Fluorescently labelled infrared secondary antibodies that enable detection using an Odyssey® CLx Imager was employed to evaluate protein levels.
FAK degraders were evaluated in immunoblot assays to determine the effective dose required to achieve FAK protein loss. Immunoblots for FAK protein were normalized relative to the loading control and percent degradation was evaluated compared to DMSO treatment.

Test [4] addresses T3, FAK (Mus musculus, UniProt P34152).
T3 construct: from tissue; host or cells: liver of nude mice
Briefly: In vivo FAK degradation in mouse livers. The settings on record: nude mice, 10 to 50 mpk intraperitoneal, three consecutive days, 4 hours after final treatment. As for the experimental part:
(§2) Mice were treated for three consecutive days and assessments were performed 4 hours after the third and final treatment.
(§3) PA-TU-8988T cells were implanted into the flanks of nude mice. After tumors had formed, mice were treated with indicated FAK degraders for three consecutive days via intraperitoneal administration and sacrificed 4 hours after the third and final treatment. Tumors and livers were harvested and lysed in RIPA on ice for 60 minutes and lysates were clarified by centrifugation. Immunoblotting for FAK was performed to evaluate changes in protein levels upon FAK degrader administration. All samples were run with equal total protein content and immunoblotting was performed using antibodies that detect total FAK protein as well as α-Tubulin as a loading control. Fluorescently labelled infrared secondary antibodies that enable detection using an Odyssey® CLx Imager was employed to evaluate protein levels.

Test [5] deals with T1, FAK. Briefly: In vivo FAK degradation in PA-TU-8988T xenograft tumors. Further details: endogenous in cells; host or cells: PA-TU-8988T. The settings on record: nude mice, 10 to 50 mpk intraperitoneal, three consecutive days, 4 hours after final treatment. The procedure: as §2, §3
In test [6] the target is T2, ALK. Briefly: In vitro kinase assay (Life Technologies), ALK. Further details: purchased Life Technologies. To be noted: ATP concentration = Km, duplicate; read-out: Biochemical IC50 ALK. As for the experimental part:
(§4) In vitro kinase assays with inventive compound 13 and VS-4718 were performed by Life Technologies™ in duplicate at an ATP concentration=Km for each indicated kinase. The results are summarized in Table 2 and indicate that inventive compound 13 maintained potent FAK activity, with improved activity on ALK as compared to VS-4718.
Target sequence in this assay (Q9UM73 19-1620): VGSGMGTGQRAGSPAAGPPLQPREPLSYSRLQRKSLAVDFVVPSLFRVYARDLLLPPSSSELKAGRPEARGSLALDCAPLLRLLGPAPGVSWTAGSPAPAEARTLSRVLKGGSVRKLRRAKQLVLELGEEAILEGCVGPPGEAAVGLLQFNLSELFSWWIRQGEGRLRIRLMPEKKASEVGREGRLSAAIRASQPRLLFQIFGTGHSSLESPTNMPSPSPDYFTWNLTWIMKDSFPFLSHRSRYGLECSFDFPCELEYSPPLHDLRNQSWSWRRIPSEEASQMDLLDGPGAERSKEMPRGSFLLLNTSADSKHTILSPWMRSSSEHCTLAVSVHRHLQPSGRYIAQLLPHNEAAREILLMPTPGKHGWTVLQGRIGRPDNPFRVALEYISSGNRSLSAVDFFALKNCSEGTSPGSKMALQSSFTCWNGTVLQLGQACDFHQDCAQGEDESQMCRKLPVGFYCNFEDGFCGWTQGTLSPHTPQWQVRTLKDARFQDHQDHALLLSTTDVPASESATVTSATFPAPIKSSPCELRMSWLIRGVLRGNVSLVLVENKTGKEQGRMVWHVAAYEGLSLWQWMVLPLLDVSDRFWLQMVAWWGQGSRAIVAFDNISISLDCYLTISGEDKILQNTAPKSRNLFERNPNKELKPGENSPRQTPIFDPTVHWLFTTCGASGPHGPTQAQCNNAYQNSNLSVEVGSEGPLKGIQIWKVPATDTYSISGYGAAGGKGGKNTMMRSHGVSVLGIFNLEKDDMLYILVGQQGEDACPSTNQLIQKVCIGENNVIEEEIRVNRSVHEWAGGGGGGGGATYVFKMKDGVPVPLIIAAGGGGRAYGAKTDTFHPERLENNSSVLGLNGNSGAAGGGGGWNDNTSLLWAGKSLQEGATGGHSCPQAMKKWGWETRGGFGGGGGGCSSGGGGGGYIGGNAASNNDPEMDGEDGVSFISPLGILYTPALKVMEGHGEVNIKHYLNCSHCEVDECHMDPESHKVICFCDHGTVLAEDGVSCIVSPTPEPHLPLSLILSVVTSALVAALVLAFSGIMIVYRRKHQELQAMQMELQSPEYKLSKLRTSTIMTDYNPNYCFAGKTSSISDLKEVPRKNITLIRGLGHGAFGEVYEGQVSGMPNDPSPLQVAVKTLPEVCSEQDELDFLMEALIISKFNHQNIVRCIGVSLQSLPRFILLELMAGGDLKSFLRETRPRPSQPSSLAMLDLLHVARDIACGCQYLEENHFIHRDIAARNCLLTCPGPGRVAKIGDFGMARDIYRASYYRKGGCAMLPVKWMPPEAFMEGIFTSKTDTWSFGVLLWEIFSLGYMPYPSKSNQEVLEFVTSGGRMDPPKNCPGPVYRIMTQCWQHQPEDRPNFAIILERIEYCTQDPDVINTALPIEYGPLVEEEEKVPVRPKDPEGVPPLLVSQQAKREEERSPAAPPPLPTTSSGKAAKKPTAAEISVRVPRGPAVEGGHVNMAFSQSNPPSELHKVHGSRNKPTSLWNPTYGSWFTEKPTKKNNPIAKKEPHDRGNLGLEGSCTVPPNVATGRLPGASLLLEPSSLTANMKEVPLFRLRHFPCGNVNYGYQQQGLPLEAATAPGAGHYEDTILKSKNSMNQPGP

Test [7] deals with kinome. The experiment in a line: KINOMEscan competition binding assays. To be noted: 1000 nM, compared to VS-4718. As for the experimental part:
KINOMEscan® competition binding assays with inventive compound 13 and VS-4718 were performed by DiscovrX at 1000 nM. […] Additionally, despite the observed activity of compound 13 on ALK, degradation of ALK with compound 9 was not observed (FIG. 6B).

For test [8], the target named is T1, FAK. Briefly: Rescue of compound 9-induced FAK degradation in PA-TU-8988T cells after pre-treatment. The format is cell-based. Further details: endogenous in cells; host or cells: PA-TU-8988T. The settings on record: pre-treatment 2 hours (0.5 μM carfilzomib, 1.0 μM MLN4924, 10 μM lenalidomide, 10 μM compound 13), then 10 nM compound 9 for 4 hours. As for the experimental part: as §1, with “PA-TU-8988T cells were treated with FAK degraders or indicated inhibitors for four hours at the indicated doses. After four hours, PA-TU-8988T cells were lysed in radioimmunoprecipitation assay (RIPA) buffer (Thermo Scientific™) on ice for 60 minutes and lysates were clarified by centrifugation. Immunoblotting” for “Immunoblotting”

Test [9] has as its target T1, FAK. Briefly: In vitro kinase assay (Life Technologies), FAK. To be noted: ATP concentration = Km, duplicate; read-out: Biochemical IC50 FAK. As for the experimental part:
as §4

As to `CNC(=O)c1ccccc1Nc1cc(Nc2cc(C)c(C3CCN(CCCCCCNC(=O)COc4cccc5c4C(=O)N(C4CCC(=O)NC4=O)C5=O)CC3)cc2OC(C)C)ncc1C(F)(F)F` (centres unmarked) [Compound 9, 2-((2-((4-(1-(6-(2-((2-(2,6-dioxopiperidin-3-yl)-1,3-dioxoisoindolin-4-yl)oxy)acetamido)hexyl)piperidin-4-yl)-2-isopropoxy-5-methylphenyl)amino)-5-(trifluoromethyl)pyridin-4-yl)amino)-N-methylbenzamide], the “Degradation of FAK protein in H3122 cells (in words)” value in test [1] is recorded as “pronounced degradation of FAK protein”. Moreover, the “Degradation of ALK protein in H3122 cells (in words)” value in test [2] is “do not show degradation of ALK; also recorded: not observed”. In test [3], the “Degradation of FAK protein (in words)” value was “rapid and pronounced degradation of FAK protein”; the inhibition at 0.01 µM lay in the range of 85 to 100%; the inhibition at 0.1 µM was 85 to 100%. The “Degradation of FAK protein in mouse livers” value in [4] is “pronounced degradation of FAK protein”. The “Degradation of FAK protein in PA-TU-8988T xenograft tumors” value in test [5] is recorded as “pronounced degradation of FAK protein”.

What is called pIC50 is the IC50 on a negative log10 scale, so that one unit is a factor of ten. `CNC(=O)c1ccccc1Nc1cc(Nc2cc(C)c(C3CCNCC3)cc2OC(C)C)ncc1C(F)(F)F` [Compound 13]: in test [6], the pIC50 was 7.58. In addition, the Kinome-wide selectivity result in test [7] is reported as “improved kinome-wide selectivity”. In [8], the “Rescue of FAK degradation induced by compound 9” value is on record as “rescued the degradation induced by compound 9”. Besides, in test [3], the “Degradation of FAK protein (in words)” value was “did not induce degradation of FAK protein”, the inhibition at 0.01 µM is 0 to 24% and the inhibition at 0.1 µM fell in the range of 0 to 24%. The pIC50 in [9] was 7.68.
